# Results as given in PubChem BioAssay AID687005 (Broad Institute, 2013).
# Records with an inconclusive call do not appear. Calls of active or inactive are those of the source.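 How the source made its calls: active means Compounds that reduce signal, with fitted half-maximal dose at or under twice the top valid tested dose; inconclusive means Poor fit, or flat curve losing 30 to 70% of signal; inactive means Potency past limit, flat within 30%, or opposite direction.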
# Assay: viability loss in HEK293T cells – cell-based, ATP luminescence, cherry-pick samples, cytotoxicity control, dose response (AID 687005)
# Details: HEK293T viability, ATP luminescence (CellTiter-Glo), 48 h
Compound,"activity change, negative = cytotoxicity (at 26 µM (top of the series))",further results
CNC[C@H]1OCCCC[C@H](C)Oc2ccc(NC(=O)CCCN(C)C)cc2C(=O)N([C@H](C)CO)C[C@@H]1C,15.7% (inactive),–
O=C(NC1CCCCC1)N[C@@H]1CC[C@@H](CCNS(=O)(=O)c2ccc(Cl)cc2)O[C@H]1CO,45.5% (inactive),–
COc1ccccc1C(=O)N1C[C@H]2[C@@H](c3ccccc31)[C@@H](CO)N2C(=O)Cc1ccccc1,-6.87% (inactive),–
O=C([C@@H]1[C@@H](CO)[C@@H]2Cn3c(cccc3=O)[C@H]1N2Cc1cccc(Cl)c1)N1CCOCC1,-9.53% (inactive),–
O=C(Cc1ccccc1)N[C@H]1C=C[C@@H](CC(=O)N2CCOCC2)O[C@H]1CO,8.54% (inactive),–
C[C@@H]1CN([C@H](C)CO)C(=O)c2cc(NS(=O)(=O)c3cn(C)cn3)ccc2O[C@@H](C)CCCCO[C@H]1CN(C)C,21.8% (inactive),–
C[C@@H]1CN([C@H](C)CO)C(=O)c2cc(NS(=O)(=O)c3cn(C)cn3)ccc2O[C@H]1CN(C)C(=O)Nc1cccc2ccccc12,–,"activity change, negative = cytotoxicity (at 23.5 µM (top of the series)): 17.8% (inactive)"
O=C(C[C@@H]1C=C[C@@H](NC(=O)Nc2cc(F)ccc2F)[C@H](CO)O1)NCCCN1CCOCC1,0.247% (inactive),–
CC(C)NC(=O)N(C)C[C@@H]1Oc2c(NC(=O)C3CCCCC3)cccc2C(=O)N([C@@H](C)CO)C[C@@H]1C,24.4% (inactive),–
COc1cccc(S(=O)(=O)Nc2ccc3c(c2)[C@H]2C[C@H](CC(=O)NCc4cccc(F)c4)O[C@@H](CO)[C@H]2O3)c1,–,"activity change, negative = cytotoxicity (at 23.5 µM (top of the series)): -22.3% (inactive)"
Cc1cc(C)c(NC(=O)C2CCC(=O)N2)c(C)c1 (stereo not given),12.8% (inactive),–
CO[C@@H]1CN(C)C(=O)c2ccc(NC(=O)NC(C)C)cc2OC[C@H](C)NC[C@@H]1C,-4.93% (inactive),–
Cc1ccc(S(=O)(=O)N[C@@H]2CCCN(Cc3cccc(OCCO)c3)C2)cc1,–,"activity change, negative = cytotoxicity (at 21 µM (top of the series)): 0.167% (inactive)"
COCC(=O)N(C)C[C@@H]1Oc2ncc(C#CCC3CCCC3)cc2C(=O)N([C@@H](C)CO)C[C@H]1C,1.81% (inactive),–
CCCC(=O)N1CCC1(C)C(=O)Nc1cc(C)ccc1C (stereo not given),–,"activity change, negative = cytotoxicity (at 42 µM (top of the series)): -18.3% (inactive)"
O=C(NC[C@H]1[C@@H](c2ccccc2)[C@@H](CO)N1C(=O)C1CCC1)NC1CCCC1,-38.9% (inactive),–
CNC[C@@H]1Oc2ccc(NS(=O)(=O)c3ccc(Cl)cc3)cc2C(=O)N([C@H](C)CO)C[C@H]1C,45.6% (inactive),–
COCC(=O)N1C[C@H](C)[C@H](OC)CN(C)C(=O)c2ccc(NC(=O)NC(C)C)cc2OC[C@@H]1C,37.2% (inactive),–
COc1ccccc1C#Cc1ccc2c(c1)O[C@H](CN(C)C(C)=O)[C@H](C)CN([C@@H](C)CO)S2(=O)=O,-7.15% (inactive),–
COc1cccc(S(=O)(=O)Nc2ccc3c(c2)OC[C@@H](C)NC[C@H](C)[C@@H](OC)CN(C)C3=O)c1,-6.17% (inactive),–
C[C@H]1CN([C@@H](C)CO)S(=O)(=O)c2ccc(Br)cc2O[C@@H]1CN(C)C(=O)CCN1CCCCC1,38.4% (inactive),–
C[C@@H]1CN([C@@H](C)CO)C(=O)CCCn2cc(nn2)CO[C@@H]1CN(C)Cc1ccc2c(c1)OCO2,–,"activity change, negative = cytotoxicity (at 23.5 µM (top of the series)): -1.87% (inactive)"

Compound,"activity change, negative = cytotoxicity (at 26 µM (top of the series))",further results
C[C@@H]1CN([C@H](C)CO)C(=O)c2cc(-c3cccc(F)c3)cnc2O[C@H]1CN(C)Cc1ccccc1,-7.8% (inactive),–
CO[C@H]1CN(C)C(=O)c2cc(NS(=O)(=O)CC(F)(F)F)ccc2OC[C@H](C)N(Cc2cccnc2)C[C@@H]1C,20.5% (inactive),–
O=C(C[C@@H]1CC[C@H]2[C@@H](COC[C@@H](O)CN2C(=O)Nc2ccc(Cl)cc2)O1)NCCc1ccncc1,-9.46% (inactive),–
CCCC(=O)N1CCCC1(C)C(=O)Nc1ccc(C)c(C)c1 (stereo not given),–,"activity change, negative = cytotoxicity (at 42 µM (top of the series)): -11.7% (inactive)"
O=C(C[C@H]1C[C@@H]2c3cc(NC(=O)CC4CC4)ccc3O[C@@H]2[C@@H](CO)O1)NCc1cccc(F)c1,35.8% (inactive),–
C[C@H]1CN([C@@H](C)CO)C(=O)Cc2cc(NS(=O)(=O)c3cn(C)cn3)ccc2O[C@@H]1CN(C)Cc1ccc(Oc2ccccc2)cc1,28.9% (inactive),–
COCC(=O)NC[C@H]1N[C@H](CO)[C@@H]1c1ccc(C2=CCCC2)cc1,16.1% (inactive),–
CC(C)NC(=O)Nc1ccc2c(c1)C(=O)N([C@@H](C)CO)C[C@H](C)[C@@H](CN(C)Cc1ccc3c(c1)OCO3)OCCCC[C@@H](C)O2,-28.1% (inactive),–
O=C(NCCN1CCCCC1)[C@@H]1N[C@@H]2c3ccc(-c4ccncc4)c(=O)n3C[C@@H]2[C@H]1CO,-26.2% (inactive),–
O=C(C[C@@H]1CC[C@@H](NC(=O)c2cccnc2)[C@@H](CO)O1)NCCN1CCCCC1,-2.13% (inactive),–
N#Cc1ccc(C23CC4(C2)[C@H](CN(Cc2ccc(-c5ccccc5)cc2)[C@@H]4c2ccccc2)C3c2ccc(C(F)(F)F)cc2)cc1 (stereo not given in full),-11.2% (inactive),–
C[C@H](CO)N1C[C@H](C)[C@H](CN(C)Cc2ccccc2)OCCCC[C@H](C)Oc2ccc(NS(=O)(=O)c3cccs3)cc2C1=O,-20.5% (inactive),–
C[C@H]1CN([C@@H](C)CO)C(=O)c2cc(-c3ccccc3)cnc2O[C@@H]1CN(C)C(=O)c1ccccn1,19% (inactive),–
C[C@H](CO)N1C[C@H](C)[C@@H](CN(C)Cc2ccncc2)Oc2ccc(NC(=O)CCC(F)(F)F)cc2C1=O,-2.07% (inactive),–
O=C(Nc1ccc(F)cc1)N1C[C@@H]2[C@H](c3ccccc31)[C@H](CO)N2Cc1cocn1,-11.6% (inactive),–
COCCNC(=O)C[C@@H]1C[C@H]2c3cc(NC(=O)C4CCOCC4)ccc3O[C@H]2[C@H](CO)O1,–,"activity change, negative = cytotoxicity (at 23.5 µM (top of the series)): 25.9% (inactive)"
C[C@H](CO)N1C[C@H](C)[C@@H](CN(C)S(=O)(=O)c2ccc(Cl)cc2)Oc2c(NS(=O)(=O)c3ccc(F)cc3)cccc2C1=O,–,"activity change, negative = cytotoxicity (at 23.5 µM (top of the series)): -1.86% (inactive)"
COc1cc2c(C(=O)N(C)c3cc(Cl)ccc3OC)cn(C)c(=O)c2cc1OC,-3.77% (inactive),–
O=C(C[C@H]1CC[C@H](NC(=O)Nc2ccc(C(F)(F)F)cc2)[C@H](CO)O1)NCc1cccc(F)c1,11.3% (inactive),–
CCCC(=O)Nc1ccc2c(c1)OC[C@H](C)N(Cc1ccccn1)C[C@H](C)[C@H](OC)CN(C)C2=O,16.2% (inactive),–
CCCNC(=O)N(C)C[C@H]1Oc2ncc(C#CC3CCCCC3)cc2C(=O)N([C@@H](C)CO)C[C@@H]1C,9.03% (inactive),–
COCCNC(=O)C[C@@H]1CC[C@@H]2[C@H](COC[C@@H](O)CN2S(=O)(=O)c2ccccc2C)O1,31.5% (inactive),–

Compound,"activity change, negative = cytotoxicity (at 26 µM (top of the series))",further results
C=CCNC(=O)CN(c1ccc(F)cc1)S(=O)(=O)c1ccc(OC)cc1,-6.42% (inactive),–
C[C@@H]1CN([C@H](C)CO)S(=O)(=O)c2ccc(C#C[C@@H](C)O)cc2O[C@@H]1CN(C)Cc1ccncc1,-20.8% (inactive),–
Cc1cc(C)c(NC(=O)C2CCCN2C)c(C)c1 (stereo not given),10.5% (inactive),–
O=C(c1cccc(F)c1)N1CCCCN2[C@@H](CO)[C@H](c3ccc(-c4ccncc4)cc3)[C@@H]2C1,2.55% (inactive),–
CCCC(=O)N1CCCC1(C)C(=O)Nc1cc(C)ccc1C (stereo not given),3.87% (inactive),"activity change, negative = cytotoxicity (at 42 µM (top of the series)): -20.6% (inactive)"
CO[C@@H]1CN(C)C(=O)c2cc(NC(=O)C3CC3)ccc2OC[C@H](C)N(C(=O)c2ccncc2)C[C@H]1C,-22.9% (inactive),–
CO[C@H]1CC[C@@H]2CCOc3c(C#N)cccc3C(=O)N(C)C[C@H](OC)[C@@H](C)C(=O)N(C)C[C@@H]1O2,-0.939% (inactive),–
C[C@H]1CN([C@@H](C)CO)C(=O)Cc2cc(N(C)C)ccc2O[C@@H]1CN(C)C(=O)Nc1ccc(C(F)(F)F)cc1,-28.9% (inactive),–
COCC#Cc1cnc2c(c1)C(=O)N([C@@H](C)CO)C[C@@H](C)[C@@H](CN(C)C(=O)C1CC1)O2,-14.4% (inactive),–
C[C@H](NC(=O)C[C@H]1CC[C@@H](NC(=O)Cc2ccccn2)[C@@H](CO)O1)c1ccccc1,25.6% (inactive),–
CC(C)NC(=O)N(C)C[C@@H]1OCCCC[C@H](C)Oc2ccc(NC(=O)Cc3ccccc3)cc2C(=O)N([C@H](C)CO)C[C@H]1C,47.6% (inactive),–
Cc1ccc(NC(=O)C2CCC(=O)N2)cc1C (stereo not given),-5.26% (inactive),–
COc1ccc(S(=O)(=O)Nc2ccc3c(c2)C(=O)N([C@@H](C)CO)C[C@H](C)[C@@H](CN(C)C)OCCCC[C@H](C)O3)cc1,-9.62% (inactive),–
COC(=O)C1=C(C)N(Cc2ccc(F)cc2)C(=S)NC1c1cccc(Cl)c1 (stereo not given),-1.12% (inactive),–
C[C@@H]1CN([C@@H](C)CO)C(=O)c2cc(/C=C/c3ccccc3)cnc2O[C@@H]1CN(C)S(C)(=O)=O,10.2% (inactive),–
S=C(Nc1ccccc1)Nc1cc(Cl)ccc1Oc1ccccc1,-0.976% (inactive),–
C[C@@H]1CCCCO[C@H](CN(C)Cc2ccc3c(c2)OCO3)[C@H](C)CN([C@H](C)CO)C(=O)c2cc(NC(=O)Nc3cccc4ccccc34)ccc2O1,171% (inactive),–
CC(C)CC#Cc1cnc2c(c1)C(=O)N([C@H](C)CO)C[C@H](C)[C@@H](CN(C)Cc1cccc(F)c1)O2,-9.35% (inactive),–
CO[C@H]1CN(C)C(=O)c2cc(NC(C)=O)ccc2OC[C@H](C)N(Cc2cccc(F)c2)C[C@@H]1C,–,"activity change, negative = cytotoxicity (at 23.5 µM (top of the series)): -25.3% (inactive)"
COc1ccc(-n2ncc3c(SCC(=O)OC(C)C)ncnc32)cc1,-5.94% (inactive),–
